According to patent publication US20150105252A1, “SUBSTITUTED PYRAZOLES AS HERBICIDES” (E I DU PONT DE NEMOURS AND COMPANY, priority 2013, published 2015):

Tests used:
canarygrass = assay: Test D postemergence; type: in vivo, Phalaris minor; details: scale 0 to 100
From the text: (§1) Seeds of plant species selected from bluegrass (annual bluegrass, Poa annua), blackgrass (Alopecurus myosuroides), canarygrass (littleseed canarygrass, Phalaris minor), chickweed (common chickweed, Stellaria media), galium (catchweed bedstraw, Galium aparine), bromegrass, downy (downy bromegrass, Bromus tectorum), field poppy (Papaver rhoeas), field violet (Viola arvensis), foxtail, green (green foxtail, Setaria viridis), deadnettle (henbit deadnettle, Lamium amplexicaule), ryegrass, Italian (Italian ryegrass, Lolium multiflorum), kochia (Kochia scoparia), lambsquarters (Chenopodium album), oilseed rape (Brassica napus), pigweed (redroot pigweed, Amaranthus retroflexus), chamomile (scentless chamomile, Matricaria inodora), speedwell (bird's-eye speedwell, Veronica persica), barley, spring (spring barley, Hordeum vulgare), wheat, spring (spring wheat, Triticum aestivum), buckwheat, wild (wild buckwheat, Polygonum convolvulus), mustard, wild (wild mustard, Sinapis arvensis), oat, wild (wild oat, Avena fatua), radish, wild (wild radish, Raphanus raphanistrum), windgrass (Apera spica-venti), Russian thistle (Salsola kali), barley, winter (winter barley, Hordeum vulgare), and wheat, winter (winter wheat, Triticum aestivum) were planted into a silt loam soil and treated preemergence with test chemicals formulated in a non-phytotoxic solvent mixture which included a surfactant.
(§2) At the same time, these species were planted in pots containing Redi-Earth® planting medium (Scotts Company, 14111 Scottslawn Road, Marysville, Ohio 43041) comprising spaghnum peat moss, vermiculite, wetting agent and starter nutrients and treated with postemergence applications of the test chemicals formulated in the same manner. Plants ranged in height from 2 to 18 cm (1- to 4-leaf stage). Treated plants and controls were maintained in a controlled growth environment for 14 to 21 days after which time all species were compared to controls and visually evaluated. Plant response ratings, summarized in Table D, are based on a scale of 0 to 100 where 0 is no effect and 100 is complete control. A dash (-) response means no test result.

buckwheat, wild = assay: Test D preemergence; type: in vivo, Polygonum convolvulus; details: scale 0 to 100
From the text: as §1, §2

chamomile = assay: Test D postemergence; type: in vivo, Matricaria inodora; details: scale 0 to 100
Outline: (§3)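 Scores of 0 (no effect) to 100 (complete control) come from visual comparison with untreated plants 14–21 days after spraying. Applications were made pre-emergence to silt loam or post-emergence to plants 2–18 cm tall.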

giant foxtail = assay: Test F preemergence; type: in vivo, Setaria faberii
From the text: Seeds of plant species selected from corn (Zea mays), soybean (Glycine max), velvetleaf (Abutilon theophrasti), lambsquarters (Chenopodium album), wild poinsettia (Euphorbia heterophylla), pigweed, palmer (palmer pigweed, Amaranthus palmeri), common waterhemp (Amaranthus rudis), surinam grass (Brachiaria decumbens), large crabgrass (Digitaria sanguinalis), crabgrass, Brazil (Brazilian crabgrass, Digitaria horizontalis), fall panicum (Panicum dichotomiflorum), giant foxtail (Setaria faberii), green foxtail (Setaria viridis), goosegrass (Eleusine indica), johnsongrass (Sorghum halepense), common ragweed (Ambrosia elation), barnyardgrass (Echinochloa crus-galli), southern sandbur (Cenchrus echinatus), arrowleaf sida (Sida rhombifolia), Italian ryegrass (Lolium multiflorum), dayflower, VA (Virginia (VA) dayflower, Commelina virginica), field bindweed (Convolvulus arvensis), cocklebur (common cocklebur, Xanthium strumarium), morningglory (Ipomoea coccinea), nightshade (eastern black nightshade, Solanum ptycanthum), kochia (Kochia scoparia), yellow nutsedge (Cyperus esculentus), and hairy beggarticks (Bidens pilosa), were planted into a silt loam soil and treated preemergence with test chemicals formulated in a non-phytotoxic solvent mixture which included a surfactant.
At the same time, plants from these crop and weed species and also horseweed (Canada horseweed, Conyza canadensis), smartweed (ladysthumb smartweed, Polygonum persicaria), waterhemp_RES1, (ALS & Triazine resistant common waterhemp, Amaranthus rudis), and waterhemp_RES2, (ALS & HPPD resistant common waterhemp, Amaranthus rudis) were treated with postemergence applications of test chemicals formulated in the same manner. Plants ranged in height from 2 to 18 cm for postemergence treatments (1- to 4-leaf stage). Treated plants and controls were maintained in a greenhouse for 14 to 21 days, after which time all species were compared to controls and visually evaluated. Plant response ratings, summarized in Table F, are based on a scale of 0 to 100 where 0 is no effect and 100 is complete control. A dash (-) response means no test result.

oat, wild = assay: Test D postemergence; type: in vivo, Avena fatua; details: scale 0 to 100
From the text: as §1, §2

wheat, winter = assay: Test D postemergence; type: in vivo, Triticum aestivum; details: scale 0 to 100
Outline: as §3

wheat, spring = assay: Test D postemergence; type: in vivo, Triticum aestivum; details: scale 0 to 100
Outline: as §3

barley, winter = assay: Test D preemergence; type: in vivo, Hordeum vulgare; details: scale 0 to 100
From the text: as §1, §2

barley, spring = assay: Test D preemergence; type: in vivo, Hordeum vulgare; details: scale 0 to 100
From the text: as §1, §2

hairy beggarticks = assay: Test F preemergence; type: in vivo, Bidens pilosa
Outline: (§4)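 Pre- and postemergence applications used the same formulation, a non-phytotoxic solvent mixture including surfactant. Soil-applied treatment followed sowing into silt loam, whereas foliar treatment hit plants at the 1- to 4-leaf stage. Scores (0 = no effect, 100 = complete control) were assigned visually after 14–21 days.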

johnsongrass = assay: Test F preemergence; type: in vivo, Sorghum halepense
Outline: as §4

radish, wild = assay: Test D preemergence; type: in vivo, Raphanus raphanistrum; details: scale 0 to 100
Outline: as §3

arrowleaf sida = assay: Test F preemergence; type: in vivo, Sida rhombifolia
Outline: as §4

deadnettle = assay: Test D postemergence; type: in vivo, Lamium amplexicaule; details: scale 0 to 100
From the text: as §1, §2

[1] = Preemergence, 31 g ai/ha, scale 0 to 100
[2] = Preemergence, 62 g ai/ha, scale 0 to 100
[3] = Preemergence, 125 g ai/ha, scale 0 to 100
[4] = preemergence, 8 g ai/ha, scale 0 to 100, 100 is complete control
[5] = preemergence, 16 g ai/ha, scale 0 to 100, 100 is complete control

## CCc1cc(C(=O)NCC(F)(F)F)nn1Cc1ccnc(C(F)(F)F)c1 [Compound 78, 5-ethyl-N-(2,2,2-trifluoroethyl)-1-[[(2-trifluoromethyl)-4-pyridinyl]methyl]-1H-pyrazole-3-carboxamide]
canarygrass; Postemergence, 31 g ai/ha
  Canarygrass plant response rating: 5
canarygrass; Postemergence, 125 g ai/ha
  Canarygrass plant response rating: 15
canarygrass; Postemergence, 250 g ai/ha
  Canarygrass plant response rating: 25
canarygrass; postemergence, 62 g ai/ha
  Canarygrass plant response rating: 10
buckwheat, wild; 31 g ai/ha
  Plant response rating, Buckwheat, Wild: 95
buckwheat, wild; 62 g ai/ha
  Plant response rating, Buckwheat, Wild: 100
buckwheat, wild; 125 g ai/ha
  Plant response rating, Buckwheat, Wild: 100
buckwheat, wild; 250 g ai/ha
  Plant response rating, Buckwheat, Wild: 100
chamomile; Postemergence, 31 g ai/ha
  Chamomile plant response rating: 30
chamomile; Postemergence, 125 g ai/ha
  Chamomile plant response rating: 65
chamomile; Postemergence, 250 g ai/ha
  Chamomile plant response rating: 75
chamomile; postemergence, 62 g ai/ha
  Chamomile plant response rating: 50
Giant foxtail; [1]
  Plant response rating, Giant Foxtail: 100
Giant foxtail; [2]
  Plant response rating, Giant Foxtail: 100
Giant foxtail; [3]
  Plant response rating, Giant Foxtail: 100
Giant foxtail; [4]
  Plant response rating, Giant Foxtail: 5
Giant foxtail; [5]
  Plant response rating, Giant Foxtail: 50
oat, wild; Postemergence, 31 g ai/ha
  Oat, Wild plant response rating: 15
oat, wild; Postemergence, 125 g ai/ha
  Oat, Wild plant response rating: 25
oat, wild; Postemergence, 250 g ai/ha
  Oat, Wild plant response rating: 40
oat, wild; postemergence, 62 g ai/ha
  Oat, Wild plant response rating: 20
wheat, winter; Postemergence, 31 g ai/ha
  Wheat, Winter plant response rating: 10
wheat, winter; Postemergence, 125 g ai/ha
  Wheat, Winter plant response rating: 25
wheat, winter; Postemergence, 250 g ai/ha
  Wheat, Winter plant response rating: 55
wheat, winter; postemergence, 62 g ai/ha
  Wheat, Winter plant response rating: 15
wheat, spring; Postemergence, 31 g ai/ha
  Wheat, Spring plant response rating: 0
wheat, spring; Postemergence, 125 g ai/ha
  Wheat, Spring plant response rating: 15
wheat, spring; Postemergence, 250 g ai/ha
  Wheat, Spring plant response rating: 25
wheat, spring; postemergence, 62 g ai/ha
  Wheat, Spring plant response rating: 5
barley, winter; 31 g ai/ha
  Plant response rating, Barley, Winter: 25
barley, winter; 62 g ai/ha
  Plant response rating, Barley, Winter: 50
barley, winter; 125 g ai/ha
  Plant response rating, Barley, Winter: 65
barley, winter; 250 g ai/ha
  Plant response rating, Barley, Winter: 95
barley, spring; 31 g ai/ha
  Plant response rating, Barley, Spring: 20
barley, spring; 62 g ai/ha
  Plant response rating, Barley, Spring: 65
barley, spring; 125 g ai/ha
  Plant response rating, Barley, Spring: 90
barley, spring; 250 g ai/ha
  Plant response rating, Barley, Spring: 100
Hairy beggarticks; [1]
  Plant response rating, Hairy Beggarticks: 25
Hairy beggarticks; [2]
  Plant response rating, Hairy Beggarticks: 35
Hairy beggarticks; [3]
  Plant response rating, Hairy Beggarticks: 80
Hairy beggarticks; [4]
  Plant response rating, Hairy Beggarticks: 0
Hairy beggarticks; [5]
  Plant response rating, Hairy Beggarticks: 20
johnsongrass; [1]
  Plant response rating, Johnsongrass: 30
johnsongrass; [2]
  Plant response rating, Johnsongrass: 95
johnsongrass; [3]
  Plant response rating, Johnsongrass: 100
johnsongrass; [4]
  Plant response rating, Johnsongrass: 20
johnsongrass; [5]
  Plant response rating, Johnsongrass: 20
radish, wild; 31 g ai/ha
  Plant response rating, Radish, Wild: 100
radish, wild; 62 g ai/ha
  Plant response rating, Radish, Wild: 100
radish, wild; 125 g ai/ha
  Plant response rating, Radish, Wild: 100
radish, wild; 250 g ai/ha
  Plant response rating, Radish, Wild: 100
Arrowleaf sida; [1]
  Plant response rating, Arrowleaf Sida: 0
Arrowleaf sida; [2]
  Plant response rating, Arrowleaf Sida: 20
Arrowleaf sida; [3]
  Plant response rating, Arrowleaf Sida: 35
Arrowleaf sida; [4]
  Plant response rating, Arrowleaf Sida: 0
Arrowleaf sida; [5]
  Plant response rating, Arrowleaf Sida: 0
deadnettle; Postemergence, 31 g ai/ha
  Deadnettle plant response rating: 15
deadnettle; Postemergence, 125 g ai/ha
  Deadnettle plant response rating: 35
deadnettle; Postemergence, 250 g ai/ha
  Deadnettle plant response rating: 60
deadnettle; postemergence, 62 g ai/ha
  Deadnettle plant response rating: 20
